According to paper PMC9352478, “Cephalosporin as Potent Urease and Tyrosinase Inhibitor: Exploration through Enzyme Inhibition, Kinetic Mechanism, and Molecular Docking Studies” (BioMed Research International, 2022):
“Also recorded” adds a separate entry of the source. Read-outs that look alike come from different tables or passages of the source.

What was measured:
jack bean urease = molecular target: T1, jack bean urease (Canavalia ensiformis, UniProt P07374); experiment: biochemical
T1 construct: purchased Sigma
T1 sequence (P07374 whole entry, looked up): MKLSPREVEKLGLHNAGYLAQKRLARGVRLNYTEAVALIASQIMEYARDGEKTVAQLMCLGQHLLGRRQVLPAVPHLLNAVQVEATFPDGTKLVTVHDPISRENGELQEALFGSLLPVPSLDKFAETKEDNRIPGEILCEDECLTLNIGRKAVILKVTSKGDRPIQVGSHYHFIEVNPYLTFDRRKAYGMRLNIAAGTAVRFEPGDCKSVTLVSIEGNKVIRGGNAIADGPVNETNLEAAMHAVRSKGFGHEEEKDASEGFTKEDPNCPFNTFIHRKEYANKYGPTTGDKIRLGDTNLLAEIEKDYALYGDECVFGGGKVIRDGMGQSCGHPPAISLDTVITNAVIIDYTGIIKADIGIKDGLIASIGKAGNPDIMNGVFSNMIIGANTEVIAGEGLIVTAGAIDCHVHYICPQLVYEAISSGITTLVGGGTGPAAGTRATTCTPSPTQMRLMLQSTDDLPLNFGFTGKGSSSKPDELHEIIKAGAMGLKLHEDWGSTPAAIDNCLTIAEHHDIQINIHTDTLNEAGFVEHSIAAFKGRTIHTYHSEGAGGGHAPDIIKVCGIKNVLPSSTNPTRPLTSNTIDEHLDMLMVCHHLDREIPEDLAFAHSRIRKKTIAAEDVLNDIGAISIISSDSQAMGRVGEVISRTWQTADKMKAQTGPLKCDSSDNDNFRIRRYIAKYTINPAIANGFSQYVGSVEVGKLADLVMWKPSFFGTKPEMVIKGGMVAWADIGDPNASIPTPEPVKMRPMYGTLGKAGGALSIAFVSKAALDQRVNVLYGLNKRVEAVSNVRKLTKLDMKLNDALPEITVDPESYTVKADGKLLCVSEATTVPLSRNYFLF
Protocol: To evaluate the urease enzyme activity, assay described by Weatherburn 1967 was performed. In 96-well plate, 10 μl of enzyme (jack bean urease, 5 U/ml), 40 μl buffer (100 mM urea, 0.01 M K2HPO4, 1 mM EDTA, and 0.01 M […], pH 8.2), and 20 μl of test drug were loaded. Following 15 min incubation at 37°C, 40 μl of alkali reagent (0.5%, w/v NaOH and 0.1% active chloride NaOCl) and 40 μl of phenol reagents (1%, w/v phenol and 0.005%, w/v sodium nitroprusside) were added.

urease = molecular target: T2, urease (Canavalia ensiformis, UniProt P07374); experiment: Urease enzyme kinetics and inhibition mechanism (Lineweaver-Burk, Dixon, enzyme activity vs enzyme concentration plots); assay type: biochemical, jack bean; conditions: for Mode of urease inhibition: Lineweaver-Burk plot; for Reversible or irreversible urease inhibition: enzyme activity vs enzyme concentration 0.44-14 μg/ml; for ESI dissociation constant (Ki'), urease: secondary replot of Lineweaver-Burk intercept, substrate urea
T2 construct: purchased Sigma
T2 sequence (P07374 whole entry, looked up): as above
Protocol: (§1) To this end, the Lineweaver-Burk plots of 1/absorbance versus 1/urea and 1/absorbance versus 1/L-DOPA were plotted. In all kinetic studies, drug concentrations (as indicated in Lineweaver-Burk plot) and respective substrates, urea in buffer (0.063 to 2 mM) for urease and L-DOPA (0.06 to 2 mM) for tyrosinase, were added and plates were incubated for 10 min at 37°C. Later, respective enzymes were added in plates and absorbance (wavelengths same as above) was monitored for 5 min with 1 min interval. The Lineweaver-Burk plot showing type of enzyme inhibition was plotted as inverse of velocities (1/V) versus inverse of substrate concentration 1/[S] Mm^−1. Later, inhibition constant (Ki) was evaluated by both the Dixon plot and from Lineweaver-Burk plot, by secondary replot of slope versus concentrations of inhibitor.
(§2) To this end, a plot among remaining enzyme activity versus various concentrations of respective enzymes in the presence of drug concentrations (as indicated in graph) was devised as determinant of reversible or irreversible behaviour of enzyme inhibition.

mushroom tyrosinase = molecular target: T3, mushroom tyrosinase (Agaricus bisporus, UniProt C7FF04); experiment: Tyrosinase enzyme kinetics and inhibition mechanism (Lineweaver-Burk, Dixon, diphenolase activity plots); assay type: biochemical; conditions: for Mode of tyrosinase inhibition: Lineweaver-Burk plot, oxidation of L-DOPA; for Reversible or irreversible tyrosinase inhibition: diphenolase activity, enzyme activity vs enzyme concentration 0.44-14 μg/ml; for ESI dissociation constant (Ki'), tyrosinase: secondary replot of Lineweaver-Burk intercept; for ESI dissociation constant (Ki'), tyrosinase / Ki: substrate L-DOPA; for Ki: secondary replot of Lineweaver-Burk slope, read-out: EI dissociation constant (Ki), tyrosinase
T3 construct: purchased Sigma
T3 sequence (C7FF04 1-392 limits assumed): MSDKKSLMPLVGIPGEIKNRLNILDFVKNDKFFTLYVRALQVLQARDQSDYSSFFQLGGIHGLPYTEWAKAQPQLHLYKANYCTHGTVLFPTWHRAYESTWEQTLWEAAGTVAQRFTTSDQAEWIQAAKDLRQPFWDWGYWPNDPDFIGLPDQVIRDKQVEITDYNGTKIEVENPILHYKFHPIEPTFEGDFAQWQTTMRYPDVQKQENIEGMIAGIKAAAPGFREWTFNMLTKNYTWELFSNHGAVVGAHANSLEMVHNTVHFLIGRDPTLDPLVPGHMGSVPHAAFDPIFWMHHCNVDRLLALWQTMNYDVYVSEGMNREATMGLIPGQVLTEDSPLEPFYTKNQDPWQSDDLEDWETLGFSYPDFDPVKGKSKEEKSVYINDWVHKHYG
Protocol: as §1, §2

How did the IC50 (jack bean urease) turn out when `COCC1=C(C(=O)OC(C)OC(=O)OC(C)C)N2C(=O)[C@@H](NC(=O)/C(=N\OC)c3csc(N)n3)[C@H]2SC1` (stereo partly shown) [Cefpodoxime proxetil] was run?
Its IC50 is 100 ± 14 µM.

For `CO/N=C(\C(=O)N[C@@H]1C(=O)N2C(C(=O)O)=C(COC(N)=O)CS[C@H]12)c1ccco1` [Cefuroxime], which IC50 (jack bean urease) is on record?
Its IC50 is 180 ± 9 µM.

`C=CC1=C(C(=O)O)N2C(=O)[C@@H](NC(=O)/C(=N\OCC(=O)O)c3csc(N)n3)[C@H]2SC1` [Cefixime trihydrate] was tested. Which IC50 (jack bean urease) did it give?
Its IC50 is 180 ± 14 µM.

`CC1=C(C(=O)O)N2C(=O)[C@@H](NC(=O)[C@H](N)c3ccccc3)[C@H]2SC1` [Cephalexin] was tested. Which IC50 (jack bean urease) did it give?
The IC50 was 370 ± 46 µM.

For `CO/N=C(\C(=O)N[C@@H]1C(=O)N2C(C(=O)[O-])=C(C[N+]3(C)CCCC3)CS[C@H]12)c1csc(N)n1` [Cefepime], which IC50 (jack bean urease) is on record?
The IC50 was 190 ± 37 µM.

`CC1=C(C(=O)O)N2C(=O)[C@@H](NC(=O)[C@H](N)c3ccc(O)cc3)[C@H]2SC1` [Cefadroxil] was tested. Which IC50 (jack bean urease) did it give?
The IC50 was 220 ± 6 µM.

`N[C@@H](C(=O)N[C@@H]1C(=O)N2C(C(=O)O)=C(Cl)CS[C@H]12)c1ccccc1` [Cefaclor] was tested. Which IC50 (jack bean urease) did it give?
Its IC50 is 170 ± 16 µM.

For `CC(C)(O/N=C(\C(=O)N[C@@H]1C(=O)N2C(C(=O)[O-])=C(C[n+]3ccccc3)CS[C@H]12)c1csc(N)n1)C(=O)O` [Ceftazidime], which IC50 (jack bean urease) is on record?
The IC50 was 91 ± 7 µM.

For `CC1=C(C(=O)O)N2C(=O)[C@@H](NC(=O)[C@H](N)C3=CCC=CC3)[C@H]2SC1` [Cephradine], which IC50 (jack bean urease) is on record?
Its IC50 is 120 ± 9 µM.

How did the IC50 (jack bean urease) turn out when `CO/N=C(\C(=O)N[C@@H]1C(=O)N2C(C(=O)O)=C(COC(C)=O)CS[C@H]12)c1csc(N)n1` [Cefotaxime sodium] was run?
Its IC50 is 60 ± 4 µM.

And the Ki (urease)?
The Ki was 120 µM.

What about the “Mode of urease inhibition” value (urease) of the same molecule?
Its value is “competitive”.

And the “Reversible or irreversible urease inhibition” value (urease)?
Its value is “irreversibly”.

What about the “ESI dissociation constant (Ki'), urease” value (urease) of the same molecule?
The value was 30000 µM.

And the “Mode of tyrosinase inhibition” value (mushroom tyrosinase)?
The value was “mixed-type, preferentially competitive”.

What about the “Reversible or irreversible tyrosinase inhibition” value (mushroom tyrosinase) of the same molecule?
Its value is “irreversibly; also recorded: irreversible”.

And the “ESI dissociation constant (Ki'), tyrosinase” value (mushroom tyrosinase)?
Its value is 800 µM.

What about the Ki (mushroom tyrosinase) of the same molecule?
The Ki was 70 µM.

How did the IC50 (jack bean urease) turn out when `CO/N=C(\C(=O)N[C@@H]1C(=O)N2C(C(=O)O)=C(CSc3nc(=O)c(=O)[nH]n3C)CS[C@H]12)c1csc(N)n1` [Ceftriaxone sodium] was run?
Its IC50 is 80 ± 4 µM.

And the Ki (urease)?
Its Ki is 700 µM.

And the “Mode of urease inhibition” value (urease)?
The value was “competitive”.

And the “Reversible or irreversible urease inhibition” value (urease)?
Its value is “irreversibly”.

What about the “ESI dissociation constant (Ki'), urease” value (urease) of the same molecule?
The value was 6000 µM.

And the “Mode of tyrosinase inhibition” value (mushroom tyrosinase)?
The value was “mixed-type, preferentially competitive”.

And the “Reversible or irreversible tyrosinase inhibition” value (mushroom tyrosinase)?
The value was “irreversibly; also recorded: irreversible”.

And the “ESI dissociation constant (Ki'), tyrosinase” value (mushroom tyrosinase)?
Its value is 600 µM.

What about the Ki (mushroom tyrosinase) of the same molecule?
The Ki was 100 µM.

For `NC(N)=S` [Thiourea], which IC50 (jack bean urease; jack bean urease 5 U/ml, 100 mM urea, pH 8.2, OD625 nm, read-out: Jack bean urease inhibition IC50 ± SEM) is on record?
The IC50 was 19 ± 2 µM.
